According to patent US20040054292A1, “Non-invasive apparatus system for monitoring autonomic nervous system and uses thereof” (INDUSTRIAL TECHNOLOGY RESEARCH INSTITUTE, priority 2002, published 2004):

How the values were obtained:
autonomic nervous system [1] = test: Heart rate variability spectral analysis in anesthetized rats after intravenous drug; type: in vivo, Sprague-Dawley rats; conditions: for high frequency (index of parasympathetic nervous activity): 0.5 to 2.4 Hz
Protocol: Matured male Sprague-Dawley rats (weighed 250-350 g) were first sensitizing anesthetized by intraperitoneal injecting of pentobarbital sodium (50 mg/kg) and then were general anesthetized by continuously infusion with pentobarbital sodium (15 mg/kg). The rats were intubated in both femoral veins, wherein one was used for continuously dropping anesthesia and the other was used for delivering testing drug. The rates were tracheal intubated to connect with a respirator (Havard 683) for mechanical respiration. In addition, the skeletal muscle of the whole body of the animals was anesthetized by administrating pancuronium. In order to record the artery pressure, the intubation at the right femoral artery was linked to a PE-50 tube connected with a syringe pre-filled with heparinized saline (200 unit/mL). The artery pressure and heart rate were recorded by a pressure sensory machine ([…], Hewlett-Packard) in the tube. The artery pressure was converted by a pressure converter (Statham, P231D, frequency range: DC to 200 Hz), amplified by a pre-amplifier (Gould, G-13-4615-52), and then filtered (DC to 100 Hz). Electrocardiograph signal was recorded by a second guided electrocardiograph recorder. The signal was amplified by a pre-amplifier(Gould G-20-4615-58) and then filtered (3-300 Hz). At the same time, the signal and the artery pressure were caught by a 12 bit analog-digital converter in an analyzing computer in a frequency of 256 points per second in every channel. The computer used was an IBM-PC compatible type comprising an Intel 80486 micro processor and a 4 MB memory. The Heart rate signals (digital blood pressure signal or electrocardiograph signal) were simultaneously and continuously on-line analyzed by the Fast Fourier Transform method, and the power of each special frequency interval was quantified by integration. High frequency (frequency between 0.5 to 2.4 Hz) in spectrum was considered as an index of parasympathetic nervous function, low frequency % [=100× low frequency/(high frequency+low frequency)] was considered as an index of sympathetic nervous function, and the means of heart rate period and variance were considered as references. The rats were divided into three groups, and each group had 4 to 6 animals. A group of animals were intravenously administered with yohimbine (1 mg/kg), which is a central nervous system α2 receptor antagonist being able to stimulate sympathetic nervous functions and inhibit parasympathetic nervous functions. Another group of animals was intravenously administered with guanabenz (100 μg/kg), which is a central nervous system α2 receptor agonist being able to inhibit sympathetic nervous functions and stimulate parasympathetic nervous functions. The animals administered with saline of the same volume was classified as a controlled group. Prior to applying the drugs, basal blood pressure, mean value of heart rate period and spectral analysis were measured for about 10 minutes, and after the drugs being intravenously administered, the effects of the drugs were measured for 30 minutes. […] Therefore, low frequency % is shown to be a valid index of the sympathetic nervous activity, and high frequency an index of the parasympathetic nervous activity, respectively. […]

autonomic nervous system [2] = test: Heart rate variability (ECG spectral analysis) in apoplectic patients complicated with hypertension before and after drug; type: in vivo, human; conditions: labetalol 12.5 mg injected
Protocol: In this human experiment, the non-invasive apparatus system of the invention was used to monitor the autonomic nervous system functional change side effects caused by drugs. Four (two females and two males) apoplectic patients complicated with hypertension at the age of 77.3±8.8 (± means standard deviation) were chosen in the study. The patients were divided into two groups: (1) the control group and (2) the labetalol group (the experiment group). All patients, 5 minutes before administrating the drug, were classified as the control group. After being treated/injected with labetalol (12.5 mg) for 5 minutes, the patients became the labetalol group. Labetalol is an α and β combined epinephrine antagonist (a sympathetic hormone epinephrine blocker) for lowering blood pressure. Treatment and analysis of the electrocardiograph (ECG) were conducted similarly to those recited in Example 1, except that the ranges of the frequencies were determined based on those of humans. The power of each frequency range comprising variance, low frequency power (0.04-0.15 Hz) and high frequency power (0.15-0.4 Hz) was quantified by integration. Parameters of the ratios of low frequency/high frequency (LF/HF ratio) and low frequency rate (LF%) were also calculated at the same time. The values of variance, LF, HF and LF/HF were logarithmically transformed to correct the distribution bias. All data were presented as mean ±SD, and the differences between the experimental and control groups were examined by paired t-test, wherein a value of p<0.05 is considered as the data having a statistic meaning. […] Variance and HF responses were uncertain (P>0.05). In light of the results of the experiment, it has been proven that non-invasive apparatus system of the invention can be used in patients for monitoring autonomic nervous system functional change side effects caused by drugs.

[3] = guanabenz 100 μg/kg intravenously, FIG. 2
[4] = guanabenz 100 μg/kg intravenously, measured for 30 minutes after drug, FIG. 2
[5] = 5 minutes after vs before, P>0.05, FIG. 4
[6] = 5 minutes after vs before, p<0.05, FIG. 4
[7] = yohimbine 1 mg/kg intravenously, FIG. 3

## N=C(N)N/N=C/c1c(Cl)cccc1Cl [guanabenz]
Autonomic nervous system [1]; [3]
  high frequency (index of parasympathetic nervous activity): increased
  low frequency % (index of sympathetic nervous activity): tremendously lowered
Autonomic nervous system [1]; [4]
  heart rate period: increased
  heart rate variability: increased

## CC(CCc1ccccc1)NCC(O)c1ccc(O)c(C(N)=O)c1 (stereo not drawn) [labetalol]
Autonomic nervous system [2]; 5 minutes after vs 5 minutes before, four patients, p<0.05, FIG. 4
  heart rate period: increased
Autonomic nervous system [2]; [5]
  HF response: uncertain
  Variance response: uncertain
Autonomic nervous system [2]; [6]
  LF % (index of heart sympathetic nervous activity): decreased
  LF/HF (index of heart sympathetic nervous activity): decreased

## COC(=O)[C@@H]1[C@H]2C[C@H]3c4[nH]c5ccccc5c4CCN3C[C@@H]2CC[C@@H]1O [yohimbine]
Autonomic nervous system [1]; [7]
  high frequency (index of parasympathetic nervous activity): lowered
  heart rate period: lowered
  low frequency % (index of sympathetic nervous activity): tremendously increased
